Read-outs that look alike come from different tables or passages of the source.
Key:
KB cells = type: cell-based, human; conditions: read-out: IC50 value, 3H-thymidine incorporation
Description: The conjugates described herein were evaluated using an in vitro cytotoxicity assay that predicted the ability of the drug to inhibit the growth of the corresponding targeted cells, such as, but not limited to the following
It is to be understood that the choice of cell type can be made on the basis of the susceptibility of those selected cells to the drug that forms the conjugate, and the relative expression of the cell surface receptor or target antigen. The test conjugates were conjugates of a cell surface receptor or target antigen binding compound and PBD prodrugs, poly-PBD prodrugs, and mixed PBDs, as described herein. The test cells were exposed to varying concentrations of the conjugates, and optionally also in the absence or presence of at least a 100-fold excess of the unconjugated cell surface receptor or target antigen binding compound for competition studies to assess activity as being specific to the cell surface receptor or target antigen.
KB cells were seeded in individual 24-well Falcon plates and allowed to form nearly confluent monolayers overnight in folate free Roswell Park Memorial Institute (FFRPMI)/Heat-Inactivated Fetal Calf Serum (HIFCS). Thirty minutes prior to the addition of folate-conjugate, spent medium was aspirated from all wells and replaced with either fresh FFRPMI or FFRPMI supplemented with 100 μM folic acid. […] Cells were pulsed for 2 h at 37° C., rinsed 4 times with 0.5 mL of medium and then chased in 1 mL of fresh medium up to 72 h. Spent medium was aspirated from all wells and replaced with fresh medium containing 5 μCi/mL of ^3H-thymidine. Following a 2 h incubation at 37° C., cells were washed 3 times with 0.5 mL of PBS and then treated with 0.5 mL of ice-cold 5% trichloroacetic acid per well. After 15 min, the trichloroacetic acid was aspirated and the cells solubilized by the addition of 0.5 mL of 0.25 N sodium hydroxide for 15 min at room temperature. Four hundred and fifty […] of each solubilized sample were transferred to scintillation vials containing 3 mL of Ecolume scintillation cocktail and counted in a liquid scintillation counter. Final results were expressed as the percentage of ^3H-thymidine incorporation relative to untreated controls.

KB tumor = assay: Antitumor activity in large KB tumor model; type: in vivo, mice; conditions: for KB tumor size compared to untreated control: 0.5 μmol/kg SIW for two weeks
Description: Female Balb/c nu/nu mice were fed ad libitum with folate-deficient chow (Harlan diet #TD01013) for the duration of the experiment. KB tumor cells were inoculated subcutaneously at the right flank of each mouse. Mice were dosed after the tumors reached an average of 100 and 180 mm^3 through the lateral tail vein under sterile conditions in a volume of […] of phosphate-buffered saline (PBS).
Growth of each s.c. tumor was followed by measuring the tumor two times per week. Tumors were measured in two perpendicular directions using Vernier calipers, and their volumes were calculated as 0.5×L×W^2, where L=measurement of longest axis in mm and W=measurement of axis perpendicular to L in mm.

[1] = with excess folate (100 μM folic acid)
[2] = without excess folate, 2 h pulse, chase up to 72 h
[3] = 0.5 μmol/kg, once a week for two weeks

## C=C1C[C@H]2C=Nc3cc(OCCCCCOc4cc(N)c(C(=O)N5CC(=C)C[C@H]5C5OCCN5C(=O)OCC(C)(C)SSCCC(=O)NCCNC(=O)CCOCCOCCOCCOCCOCCOCCOCCOCCOCCOCCOCCOCCOCCOCCOCCOCCOCCOCCOCCOCCOCCOCCOCCOCCOCCOCCOCCOCCOCCOCCOCCOCCOCCOCCOCCOCCNC(=O)CCN5C(=O)CC(SC[C@H](NC(=O)[C@H](CC(=O)O)NC(=O)[C@H](CC(=O)O)NC(=O)[C@H](CCCNC(=N)N)NC(=O)[C@H](CC(=O)O)NC(=O)CC[C@H](NC(=O)c6ccc(NCc7cnc8nc(N)[nH]c(=O)c8n7)cc6)C(=O)O)C(=O)O)C5=O)cc4OC)c(OC)cc3C(=O)N2C1 (stereo partly drawn) [Conjugate 7]
KB cells; [1]
  IC50: 5 nM
KB cells; [2]
  IC50: 0.13 nM
KB tumor; [3]
  cures: 100%

## C=C1C[C@H]2C=Nc3cc(OCCCCCOc4cc5c(cc4OC)C(=O)N4CC(=C)C[C@H]4C(=O)N5COC(=O)CCCSSC[C@@H](NC(=O)[C@H](CCC(=O)NC[C@H](O)[C@@H](O)[C@H](O)[C@H](O)CO)NC(=O)[C@@H](CCC(=O)O)NC(=O)[C@H](CCC(=O)NC[C@H](O)[C@@H](O)[C@H](O)[C@H](O)CO)NC(=O)[C@@H](CCC(=O)O)NC(=O)[C@H](CCC(=O)NC[C@H](O)[C@@H](O)[C@H](O)[C@H](O)CO)NC(=O)CC[C@H](NC(=O)c4ccc(NCc5cnc6nc(N)[nH]c(=O)c6n5)cc4)C(=O)O)C(=O)O)c(OC)cc3C(=O)N2C1 [Conjugate 9]
KB cells; [1]
  IC50: 67 nM
KB cells; [2]
  IC50: 0.8 nM
KB tumor; 1 μmol/kg, once a week for two weeks
  PRs (partial responses): 0%

## C=C1C[C@H]2C=Nc3cc(OCCCCCOc4cc(NC(=O)OCCSSC[C@H](NC(=O)[C@H](CC(=O)O)NC(=O)[C@H](CC(=O)O)NC(=O)[C@H](CCCNC(=N)N)NC(=O)[C@H](CC(=O)O)NC(=O)CC[C@H](NC(=O)c5ccc(NCc6cnc7nc(N)[nH]c(=O)c7n6)cc5)C(=O)O)C(=O)O)c(C(=O)N5CC(=C)C[C@H]5/C=N/OC)cc4OC)c(OC)cc3C(=O)N2C1 [Conjugate 16]
KB cells; [1]
  IC50: 5 nM
KB cells; [2]
  IC50: 0.07 nM
KB tumor; [3]
  complete responses: 40%
  cures: 60%

## C=C1C[C@H]2[C@H](O)N(C(=O)OCC(C)SSC[C@H](CC(=O)[C@H](CC(=O)O)NC(=O)[C@H](CC(=O)O)NC(=O)[C@H](CCCNC(=N)N)NC(=O)[C@H](CC(=O)O)NC(=O)CC[C@H](NC(=O)c3ccc(NCc4cnc5nc(N)[nH]c(=O)c5n4)cc3)C(=O)O)C(=O)O)c3cc(OCCCCCOc4cc5c(cc4OC)C(=O)N4CC(=C)C[C@H]4[C@H](O)N5C(=O)OCC(C)SSC[C@H](NC(=O)[C@H](CC(=O)O)NC(=O)[C@H](CC(=O)O)NC(=O)[C@H](CCCNC(=N)N)NC(=O)[C@H](CC(=O)O)NC(=O)CC[C@H](NC(=O)c4ccc(NCc5cnc6nc(N)[nH]c(=O)c6n5)cc4)C(=O)O)C(=O)O)c(OC)cc3C(=O)N2C1 (stereo partly drawn) [Conjugate 2]
KB cells; [1]
  IC50: 16 nM
KB cells; [2]
  IC50: 0.14 nM
KB tumor; [3]
  cures: 100%

## C=C1C[C@H]2C=Nc3cc(OCCCCCOc4cc5c(cc4OC)C(=O)N4CC(=C)C[C@H]4C(O)N5C(=O)OCC(C)(C)SSCCC(=O)NCCNC(=O)CCOCCOCCOCCOCCNC(=O)CCN4C(=O)CC(SC[C@H](NC(=O)[C@H](CC(=O)O)NC(=O)[C@H](CC(=O)O)NC(=O)[C@H](CCCNC(=N)N)NC(=O)[C@H](CC(=O)O)NC(=O)CC[C@H](NC(=O)c5ccc(NCc6cnc7nc(N)[nH]c(=O)c7n6)cc5)C(=O)O)C(=O)O)C4=O)c(OC)cc3C(=O)N2C1 (stereo partly drawn) [Conjugate 24]
KB cells; [1]
  IC50: 1.8 nM
KB cells; [2]
  IC50: 0.079 nM

## C=C1C[C@H]2C=Nc3cc(OCCCCCOc4cc(N)c(C(=O)N5CC(=C)C[C@H]5C5OCCN5C(=O)OCC(C)(C)SSCCC(=O)NCCNC(=O)CCOCCOCCOCCOCCOCCOCCOCCOCCOCCOCCOCCOCCNC(=O)CCN5C(=O)CC(SC[C@H](NC(=O)[C@H](CC(=O)O)NC(=O)[C@H](CC(=O)O)NC(=O)[C@H](CCCNC(=N)N)NC(=O)[C@H](CC(=O)O)NC(=O)CC[C@H](NC(=O)c6ccc(NCc7cnc8nc(N)[nH]c(=O)c8n7)cc6)C(=O)O)C(=O)O)C5=O)cc4OC)c(OC)cc3C(=O)N2C1 (stereo partly drawn) [Conjugate 8]
KB cells; [1]
  IC50: 0.3 nM
KB cells; [2]
  IC50: 0.055 nM
KB tumor; 0.2 μmol/kg, once a week for two weeks
  cures: 100%

## C=C1C[C@H]2C=Nc3cc(OCCCCCOc4cc(NC(=O)OCC(C)SSC[C@H](NC(=O)CCOCCOCCOCCOCCNC(=O)[C@H](CC(=O)O)NC(=O)[C@H](CC(=O)O)NC(=O)[C@H](CCCNC(=N)N)NC(=O)[C@H](CC(=O)O)NC(=O)CC[C@H](NC(=O)c5ccc(NCc6cnc7nc(N)[nH]c(=O)c7n6)cc5)C(=O)O)C(=O)O)c(C(=O)N5CC(=C)C[C@H]5/C=N/OC)cc4OC)c(OC)cc3C(=O)N2C1 (stereo partly drawn) [Conjugate 27]
KB cells; [1]
  IC50: 6.1 nM
KB cells; [2]
  IC50: 0.091 nM

## C=C1CC(/C=N/OC)N(C(=O)c2cc(OC)c(OCCCCCOc3cc4c(cc3OC)C(=O)N3CC(=C)C[C@H]3C=N4)cc2NC(=O)OCC(C)(C)SSCCC(=O)NCCNC(=O)CCN2C(=O)CC(SC[C@H](NC(=O)[C@H](CC(=O)O)NC(=O)[C@H](CC(=O)O)NC(=O)[C@H](CCCNC(=N)N)NC(=O)[C@H](CC(=O)O)NC(=O)CC[C@H](NC(=O)c3ccc(NCc4cnc5nc(N)[nH]c(=O)c5n4)cc3)C(=O)O)C(=O)O)C2=O)C1 (stereo partly drawn) [Conjugate 18]
KB cells; [1]
  IC50: 2 nM
KB cells; [2]
  IC50: 0.065 nM
KB tumor
  KB tumor size compared to untreated control: decreased KB tumor size

## C=C1C[C@H]2C=Nc3cc(OCCCCCOc4cc(NC(=O)OCCCSSC[C@H](NC(=O)[C@H](CC(=O)O)NC(=O)[C@H](CC(=O)O)NC(=O)[C@H](CCCNC(=N)N)NC(=O)[C@H](CC(=O)O)NC(=O)CC[C@H](NC(=O)c5ccc(NCc6cnc7nc(N)[nH]c(=O)c7n6)cc5)C(=O)O)C(=O)O)c(C(=O)N5CC(=C)C[C@H]5/C=N/OC)cc4OC)c(OC)cc3C(=O)N2C1 [Conjugate 31]
KB cells; [2]
  IC50: 0.647 nM

## C=C1C[C@H]2C=Nc3cc(OCCCCCOc4cc(N)c(C(=O)N5CC(=C)C[C@H]5C5OCCN5C(=O)OCC(C)(C)SSCCC(=O)NCCNC(=O)CCCCCN5C(=O)CC(SC[C@H](NC(=O)[C@H](CC(=O)O)NC(=O)[C@H](CC(=O)O)NC(=O)[C@H](CCCNC(=N)N)NC(=O)[C@H](CC(=O)O)NC(=O)CC[C@H](NC(=O)c6ccc(NCc7cnc8nc(N)[nH]c(=O)c8n7)cc6)C(=O)O)C(=O)O)C5=O)cc4OC)c(OC)cc3C(=O)N2C1 (stereo partly drawn) [Conjugate 22]
KB cells; [1]
  IC50: 1.4 nM
KB cells; [2]
  IC50: 0.14 nM

## C=C1C[C@H]2C=Nc3cc(OCCCCCOc4cc(N)c(C(=O)N5CC(=C)C[C@H]5C5OCCN5C(=O)OCC(C)SSC[C@H](NC(=O)[C@H](CC(=O)O)NC(=O)[C@H](CC(=O)O)NC(=O)[C@H](CCCNC(=N)N)NC(=O)[C@H](CC(=O)O)NC(=O)CC[C@H](NC(=O)c5ccc(NCc6cnc7nc(N)[nH]c(=O)c7n6)cc5)C(=O)O)C(=O)O)cc4OC)c(OC)cc3C(=O)N2C1 (stereo partly drawn) [Conjugate 4]
KB cells; [1]
  IC50: 6 nM
KB cells; [2]
  IC50: 0.049 nM
KB tumor; [3]
  cures: 100%

## C=C1C[C@H]2C=Nc3cc(OCCCCCOc4cc(NC(=O)OCCSSC[C@@H](C)NC(=O)CCOCCOCCOCCOCCNC(=O)[C@H](CC(=O)O)NC(=O)[C@H](CC(=O)O)NC(=O)[C@H](CCCNC(=N)N)NC(=O)[C@H](CC(=O)O)NC(=O)CC[C@H](NC(=O)c5ccc(NCc6cnc7nc(N)[nH]c(=O)c7n6)cc5)C(=O)O)c(C(=O)N5CC(=C)C[C@H]5/C=N/OC)cc4OC)c(OC)cc3C(=O)N2C1 [Conjugate 26]
KB cells; [1]
  IC50: 1.6 nM
KB cells; [2]
  IC50: 0.028 nM

## C=C1C[C@H]2C=Nc3cc(OCCCCCOc4cc(NC(=O)OCCSSC(C)(C)[C@H](NC(=O)[C@H](CC(=O)O)NC(=O)[C@H](CC(=O)O)NC(=O)[C@H](CCCNC(=N)N)NC(=O)[C@H](CC(=O)O)NC(=O)CC[C@H](NC(=O)c5ccc(NCc6cnc7nc(N)[nH]c(=O)c7n6)cc5)C(=O)O)C(=O)O)c(C(=O)N5CC(=C)C[C@H]5/C=N/OC)cc4OC)c(OC)cc3C(=O)N2C1 [Conjugate 32]
KB cells; [1]
  IC50: 57 nM
KB cells; [2]
  IC50: 2 nM

## C=C1C[C@H]2C=Nc3cc(OCCCCCOc4cc(NC(=O)OCC(C)(C)SSCCC(=O)NCCNC(=O)CCOCCOCCOCCOCCOCCOCCOCCOCCOCCOCCOCCOCCNC(=O)CCN5C(=O)CC(SC[C@H](NC(=O)[C@H](CC(=O)O)NC(=O)[C@H](CC(=O)O)NC(=O)[C@H](CCCNC(=N)N)NC(=O)[C@H](CC(=O)O)NC(=O)CC[C@H](NC(=O)c6ccc(NCc7cnc8nc(N)[nH]c(=O)c8n7)cc6)C(=O)O)C(=O)O)C5=O)c(C(=O)N5CC(=C)C[C@H]5/C=N/OC)cc4OC)c(OC)cc3C(=O)N2C1 (stereo partly drawn) [Conjugate 20]
KB cells; [1]
  IC50: 0.7 nM
KB cells; [2]
  IC50: 0.04 nM
KB tumor
  KB tumor size compared to untreated control: decreased KB tumor size

From patent publication US20200323991A1, “PBD CONJUGATES FOR TREATING DISEASES” (ENDOCYTE, INC., priority 2016, published 2020)
